Measurements as given in US11420970B1 (NOVARTIS AG, priority 2019, dated 2022).

Target: NSD2 [1-1365] (Homo sapiens (Human), UniProt O96028)
Assay: LC-MS/MS-based NSD2 enzymatic assay (SAH production)
Format: biochemical
Conditions: NSD2 biochemical activity, class symbols; read-out: NSD2 IC50
Experimental: LC-MS/MS-Based NSD2 Enzymatic Assay
This assay employed LC-MS/MS technology to monitor the SAH production from the NSD2 enzymatic reaction. The enzymatic reaction was performed in white proxiplate plus 384-well microplate (Perkin Elmer). The reaction mixture (10 μL) were composed of 8 nM NSD2 [1-1365], […] SAM (USB, 10601) and 400 nM nucleosome (purified from mouse liver) in reaction buffer (20 mM Tris-HCl, pH at 8.0, 0.01% Tween 20, 10 mM MgCl2, 50 mM NaCl, 1 mM DTT, 1 mM TCEP (pH7.5)). After 90 min incubation at room temperature, 3 μL quenching solution containing 2.5% TFA with 320 nM d4-SAH was added to stop the reaction.
For the inhibition assay, compound solutions were transferred into the wells by Mosquito™ (TTP LabTech). The inhibition assays were carried out by preincubating various concentrations of the inhibitor with 5 uL reaction mixture containing 16 nM NSD2 [1-1365] and 2 uM SAM (USB, 10601) in reaction buffer. After 20 min preincubation, 5 uL solution containing 800 nM nucleosome (purified from mouse liver) in reaction buffer was added to initiate the reaction. The reaction was stopped by 3 μL quenching solution containing 2.5% TFA with 320 nM d4-SAH after 90 min.
The SAH production from the enzymatic assays were monitored by LC-MS/MS on an API 4000 triple quadrupole mass spec with Turbolon Spray (Applied Biosystem) coupled with Prominenece UFLC(Shimazu). Liquid chromatography was performed on a Chromolith FastGradient HPLC column (RP-18e, 25-2 mm, from Merck) at a flow rate of 0.8 ml/min. The column was connected directly to the turbo ion electrospray operating in the positive-ion mode. Mobile phase A is 0.1% FA and 2% methanol in water and mobile phase B is 0.1% FA in ACN. Injection volume was 3 μl and the autosampler was kept at 4 degree. SAH and d4-SAH were simultaneously monitored. Data were acquired and processed by Analyst software.
To quantify the formed SAH, d4-SAH was added as internal standard (IS). A series of SAH (Sigma, A9384) solution at varying concentration (1-500 nM in reaction buffer) was mixed with quenching solution mentioned above. Then LC-MS/MS was carried out on API 4000 LC/MS/MS system to detect both SAH and d4-SAH. The plot of SAH peak area/IS peak area vs SAH concentration was used to generate the normalization factor of SAH. The SAH production from real enzymatic reaction was derived from the standard curve of SAH. The down-limit of our system for the detection of SAH is around 1-2 nM, and the linear range can reach up to 500 nM.

Sequence of NSD2 [1-1365] (O96028 whole entry): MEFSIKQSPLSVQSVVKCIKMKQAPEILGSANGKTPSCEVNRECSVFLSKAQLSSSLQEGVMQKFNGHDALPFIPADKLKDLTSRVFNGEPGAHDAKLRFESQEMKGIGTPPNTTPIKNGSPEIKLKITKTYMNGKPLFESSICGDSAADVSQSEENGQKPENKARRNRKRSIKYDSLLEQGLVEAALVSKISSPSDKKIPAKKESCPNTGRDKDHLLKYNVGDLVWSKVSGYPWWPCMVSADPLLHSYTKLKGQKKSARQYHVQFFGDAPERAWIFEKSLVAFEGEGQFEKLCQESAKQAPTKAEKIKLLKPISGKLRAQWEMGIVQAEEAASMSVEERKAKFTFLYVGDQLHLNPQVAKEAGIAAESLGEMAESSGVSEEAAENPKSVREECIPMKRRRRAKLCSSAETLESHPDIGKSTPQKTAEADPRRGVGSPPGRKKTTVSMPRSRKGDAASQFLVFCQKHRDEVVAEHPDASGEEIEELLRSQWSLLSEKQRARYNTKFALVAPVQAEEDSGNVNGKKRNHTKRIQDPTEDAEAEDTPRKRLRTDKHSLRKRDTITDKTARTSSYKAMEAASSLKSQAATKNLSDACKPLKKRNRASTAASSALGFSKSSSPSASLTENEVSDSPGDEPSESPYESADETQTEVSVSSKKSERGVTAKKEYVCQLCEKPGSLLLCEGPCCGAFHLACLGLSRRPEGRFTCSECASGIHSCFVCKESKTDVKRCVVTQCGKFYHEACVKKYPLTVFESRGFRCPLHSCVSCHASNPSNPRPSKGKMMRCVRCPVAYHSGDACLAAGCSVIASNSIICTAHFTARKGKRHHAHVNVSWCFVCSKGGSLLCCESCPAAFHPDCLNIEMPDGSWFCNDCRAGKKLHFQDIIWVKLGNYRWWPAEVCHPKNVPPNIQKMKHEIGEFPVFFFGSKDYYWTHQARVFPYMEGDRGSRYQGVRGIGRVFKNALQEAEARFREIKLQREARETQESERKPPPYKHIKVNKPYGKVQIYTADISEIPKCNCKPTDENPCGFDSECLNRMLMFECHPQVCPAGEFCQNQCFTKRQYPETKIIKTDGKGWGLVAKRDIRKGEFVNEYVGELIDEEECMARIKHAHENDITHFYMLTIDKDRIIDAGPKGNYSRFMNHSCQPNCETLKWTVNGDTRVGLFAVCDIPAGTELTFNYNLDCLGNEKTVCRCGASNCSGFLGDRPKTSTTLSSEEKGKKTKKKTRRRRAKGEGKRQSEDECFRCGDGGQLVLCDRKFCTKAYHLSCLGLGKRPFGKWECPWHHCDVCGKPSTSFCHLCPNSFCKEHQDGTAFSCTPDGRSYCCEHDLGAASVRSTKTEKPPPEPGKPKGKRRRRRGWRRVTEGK

| Compound | IC50 |
| --- | --- |
| Nc1ncnc2c1ncn2Cc1cc(-c2ccc(NC(=O)CCBr)cc2)ncc1N1CCCC(N)(CC(F)F)C1 (stereo not shown) [Example 64, N-(4-(5-(3-amino-3-(2,2-difluoroethyl)piperidin-1-yl)-4-((6-amino-9H-purin-9-yl)methyl)pyridin-2-yl)phenyl)-3-bromopropanamide] | 10 to 1000 nM |
| Nc1nccc2c1ncn2Cc1cc(-c2ccc(F)c(F)c2)ncc1N1CCC[C@](N)(Cc2ccccn2)C1 [Example 51, (S)-1-((5-(3-amino-3-(pyridin-2-ylmethyl)piperidin-1-yl)-2-(3,4-difluorophenyl)pyridin-4-yl)methyl)-1H-imidazo[4,5-c]pyridin-4-amine] | 1 to 10 nM |
| CN(C)C(=O)CC1(N)CCCN(c2cnc(-c3ccc(F)c(F)c3)cc2Cn2cnc3c(N)ncc(Cl)c32)C1 (stereo not shown) [Example 68, 2-(3-amino-1-(4-((4-amino-7-] | 10 to 1000 nM |
| Nc1ncnc2c1ncn2Cc1cc(-c2ccc(CNC(=O)CCl)cc2)ncc1N1CCCC(N)(CC(F)F)C1 (stereo not shown) [Example 75, N-(4-(5-(3-amino-3-(2,2-difluoroethyl)piperidin-1-yl)-4-((6-amino-9H-purin-9-yl)methyl)pyridin-2-yl)benzyl)-2-chloroacetamide] | 10 to 1000 nM |
| Nc1ncnc2c1ncn2Cc1cc(-c2ccc(F)c(F)c2)ncc1N1CCC[C@](N)(C(=O)NC2CCOCC2)C1 [Example 82, (R)-3-amino-1-(4-((6-amino-9H-purin-9-yl)methyl)-6-(3,4-difluorophenyl)pyridin-3-yl)-N-(tetrahydro-2H-pyran-4-yl)piperidine-3-carboxamide] | 10 to 1000 nM |

More lines, now with the values ahead:

| IC50 | Compound |
| --- | --- |
| 10 to 1000 nM | C[C@@H](c1ccccn1)[C@@]1(N)CCCN(c2cnc(-c3ccc(F)c(F)c3)cc2Cn2cnc3c(N)ncnc32)C1 [Example 65, 9-((5-((S)-3-amino-3-((R)-1-(pyridin-2-yl)ethyl)piperidin-1-yl)-2-(3,4-difluorophenyl)pyridin-4-yl)methyl)-9H-purin-6-amine] |
| 1 to 10 nM | Nc1ncnc2c1ncn2Cc1cc(-c2cc(F)c(C(F)F)cc2F)ncc1N1CCC[C@](N)([C@H](O)C(F)F)C1 [Example 120, (S)-1-((R)-3-amino-1-(4-((6-amino-9H-purin-9-yl)methyl)-6-(4-(difluoromethyl)-2,5-difluorophenyl)pyridin-3-yl)piperidin-3-yl)-2,2-difluoroethan-1-ol] |
| 10 to 1000 nM | Cc1cc(C(F)F)ccc1-c1cc(Cn2cnc3c(N)ncnc32)c(N2CCC[C@](N)([C@H](O)C(F)F)C2)cn1 [Example 140, (S)-1-((R)-3-amino-1-(4-((6-amino-9H-purin-9-yl)methyl)-6-(4-(difluoromethyl)-2-methylphenyl)pyridin-3-yl)piperidin-3-yl)-2,2-difluoroethan-1-ol] |
| 1 to 10 nM | COC[C@@]1(N)CCCN(c2cnc(-c3ccc(F)c(Cl)c3)cc2Cn2cnc3c(N)ncnc32)C1 [Example 28, (R)-9-((5-(3-amino-3-(methoxymethyl)piperidin-1-yl)-2-(3-chloro-4-fluorophenyl)pyridin-4-yl)methyl)-9H-purin-6-amine] |
| 10 to 1000 nM | COCCC1(N)CCCN(c2cnc(-c3ccc(F)c(F)c3)cc2Cn2cnc3c(N)ncnc32)C1 (stereo not shown) [Example 60, 9-((5-(3-amino-3-(2-methoxyethyl)piperidin-1-yl)-2-(3,4-difluorophenyl)pyridin-4-yl)methyl)-9H-purin-6-amine] |

Same assay, conditions: read-out: NSD2 IC50

| IC50 | Compound |
| --- | --- |
| 10 to 1000 nM | Nc1nccc2c1ncn2Cc1cc(-c2ccc(F)c(F)c2)ncc1N1CCCC(N)(c2cccc(F)n2)C1 (stereo not shown) [Example 262, 1-((5-(3-amino-3-(6-fluoropyridin-2-yl)piperidin-1-yl)-2-(3,4-difluorophenyl)pyridin-4-yl)methyl)-1H-imidazo[4,5-c]pyridin-4-amine] |
| 1 to 10 nM | Cn1ccc([C@@]2(N)CCCN(c3cnc(-c4ccc(F)c(F)c4)cc3Cn3cnc4c(N)ncnc43)C2)n1 [Example 275, (R)-9-((5-(3-amino-3-(1-methyl-1H-pyrazol-3-yl)piperidin-1-yl)-2-(3,4-difluorophenyl)pyridin-4-yl)methyl)-9H-purin-6-amine] |
| 10 to 1000 nM | Nc1ncnc2c1ncn2Cc1cc(-c2ccc3c(c2)CCO3)ncc1N1CCC[C@](N)(c2cccc(Cl)n2)C1 [Example 185, (R)-9-((5-(3-amino-3-(6-chloropyridin-2-yl)piperidin-1-yl)-2-(2,3-dihydrobenzofuran-5-yl)pyridin-4-yl)methyl)-9H-purin-6-amine] |
| 1 to 10 nM | Nc1ncnc2c1ncn2Cc1cc(-c2ccc(F)cc2)ncc1N1CCC[C@](N)(c2ccn(C(F)F)n2)C1 [Example 273, (R)-9-((5-(3-amino-3-(1-(difluoromethyl)-1H-pyrazol-3-yl)piperidin-1-yl)-2-(4-fluorophenyl)pyridin-4-yl)methyl)-9H-purin-6-amine] |
| 10 to 1000 nM | Nc1ncnc2c1ncn2Cc1cc(-c2ccc(F)c(F)c2)ncc1N1CCCC(N)(C(F)C(F)F)C1 (stereo not shown) [Example 300, 9-((5-(3-amino-3-(1,2,2-trifluoroethyl)piperidin-1-yl)-2-(3,4-difluorophenyl)pyridin-4-yl)methyl)-9H-purin-6-amine] |
| 10 to 1000 nM | Nc1ncnc2c1ncn2Cc1cc(-c2ccc(F)c(F)c2)ncc1N1CCC[C@@H](N)[C@H]1CO [Example 312, ((2S,3R)-3-amino-1-(4-((6-amino-9H-purin-9-yl)methyl)-6-(3,4-difluorophenyl)pyridin-3-yl)piperidin-2-yl)methanol] |
| 10 to 1000 nM | CC(O)c1ccc([C@@]2(N)CCCN(c3cnc(-c4ccc(F)c(F)c4)cc3Cn3cnc4c(N)ncnc43)C2)nc1F (stereo partly drawn) [Example 215, 1-(6-((R)-3-amino-1-(4-((6-amino-9H-purin-9-yl)methyl)-6-(3,4-difluorophenyl)pyridin-3-yl)piperidin-3-yl)-2-fluoropyridin-3-yl)ethan-1-ol] |
| 10 to 1000 nM | CCc1cncc([C@@]2(N)CCCN(c3cnc(-c4ccc(F)cc4)cc3Cn3cnc4c(N)ncnc43)C2)n1 [Example 250, (R)-9-((5-(3-amino-3-(6-ethylpyrazin-2-yl)piperidin-1-yl)-2-(4-fluorophenyl)pyridin-4-yl)methyl)-9H-purin-6-amine] |
| 10 to 1000 nM | CCc1cncc([C@@]2(N)CCCN(c3cnc(-c4ccc(F)cc4)cc3Cn3cnc4c(N)nccc43)C2)n1 [Example 256, (R)-1-((5-(3-amino-3-(6-ethylpyrazin-2-yl)piperidin-1-yl)-2-(4-fluorophenyl)pyridin-4-yl)methyl)-1H-imidazo[4,5-c]pyridin-4-amine] |
| 10 to 1000 nM | Nc1ncnc2c1ncn2Cc1cc(-c2ccc(F)c(F)c2)ncc1N1CCC(O)C(N)(CC(F)F)C1 (stereo not shown) [Example 301, 3-amino-1-(4-((6-amino-9H-purin-9-yl)methyl)-6-(3,4-difluorophenyl)pyridin-3-yl)-3-(2,2-difluoroethyl)piperidin-4-ol] |
| > 1000 nM | C[C@H]1CC[C@@H](N)CN1c1cnc(-c2ccc(F)c(F)c2)cc1Cn1cnc2c(N)ncnc21 [Example 310, 9-((5-((2S,5R)-5-amino-2-methylpiperidin-1-yl)-2-(3,4-difluorophenyl)pyridin-4-yl)methyl)-9H-purin-6-amine] |

System: cellular H3K36me2 level in multiple myeloma cell line KMS11 (t(4;14)+)
Assay: H3K36me2 cellular ELISA assay in KMS11-Par line
Format: cell-based
Conditions: Homo sapiens, KMS-11; KMS11-Par line (t(4;14)+), 72 hours treatment, ELISA; read-out: H3K36me2 ELISA in KMS11-Par
Experimental: H3K36Me2 Cellular ELISA Assay in KMS11-Par Line
An ELISA (enzyme-linked immunosorbent assay) based assay was used to test the ability of candidate compound to reduce cellular H3K36me2 level in multiple myeloma cell line KMS11 (t(4;14)+). KMS11 (Horizon Discovery Ltd.) cells are maintained in RPM11640 media with 12.5% FBS and 50 U/ml Penicillin-Streptomycin. For assay compound treatment, single cell suspension was prepared in Opti-MEM supplemented with B-27 and N2 supplement (Invitrogen 11058-021, 17504-044, 17502-048) for ELISA and in maintenance media for cellTiter Glo (CTG) viability assay. One day prior to cell treatment, 1,250 KMS11 cells were seeded into 384-well Greiner CellStar TC plate (Greiner #781086) at the final volume of 30 μL/well.
Cells were treated with tested compounds at the desired concentration for 72 hours. Crude histone lysate was extracted by 0.4M HCl following neutralization by 0.5M Sodium phosphate, dibasic (Na2HPO4), pH ˜12.5. Equal amount of histone lysate was loaded to Corning 384-well high biding plate (Corning #3577, black) for H3K36m2 and to Thermo 384-well high binding Nunc plate (Thermo #460372, white) for total H3.
Histone bound plates were washed and blocked with 5% BSA. […] The abundance of H3K36me2 and total H3 was measured by Chemiluminesce on a plate reader. Cell viability was monitored on a parallel seeded plate with CellTiter-Glo reagent (Promega #G7573).

| IC50 | Compound |
| --- | --- |
| 7000 nM | Nc1ncnc2c1ncn2Cc1cc(-c2ccc(NC(=O)CCBr)cc2)ncc1N1CCCC(N)(CC(F)F)C1 (stereo not shown) [Example 64, N-(4-(5-(3-amino-3-(2,2-difluoroethyl)piperidin-1-yl)-4-((6-amino-9H-purin-9-yl)methyl)pyridin-2-yl)phenyl)-3-bromopropanamide] |
| 1130 nM | C[C@@H](c1ccccn1)[C@@]1(N)CCCN(c2cnc(-c3ccc(F)c(F)c3)cc2Cn2cnc3c(N)ncnc32)C1 [Example 65, 9-((5-((S)-3-amino-3-((R)-1-(pyridin-2-yl)ethyl)piperidin-1-yl)-2-(3,4-difluorophenyl)pyridin-4-yl)methyl)-9H-purin-6-amine] |
| 1530 nM | Nc1nccc2c1ncn2Cc1cc(-c2ccc(F)c(F)c2)ncc1N1CCC[C@](N)(Cc2ccccn2)C1 [Example 51, (S)-1-((5-(3-amino-3-(pyridin-2-ylmethyl)piperidin-1-yl)-2-(3,4-difluorophenyl)pyridin-4-yl)methyl)-1H-imidazo[4,5-c]pyridin-4-amine] |

Same assay, conditions: Homo sapiens, KMS-11; KMS11-Par line, ELISA, 72 hours; read-out: H3K36me2 ELISA in KMS11-Par

| IC50 | Compound |
| --- | --- |
| 1330 nM | Nc1nccc2c1ncn2Cc1cc(-c2ccc(F)c(F)c2)ncc1N1CCCC(N)(c2cccc(F)n2)C1 (stereo not shown) [Example 262, 1-((5-(3-amino-3-(6-fluoropyridin-2-yl)piperidin-1-yl)-2-(3,4-difluorophenyl)pyridin-4-yl)methyl)-1H-imidazo[4,5-c]pyridin-4-amine] |
